Data from ChEMBL document CHEMBL1133792, “Synthesis, absolute configuration and antimuscarinic activity of the enantiomers of [1-(2,2-diphenyl-[1,3]dioxolan-4-yl)-ethyl]-dimethyl-amine” (Bioorg Med Chem Lett, 2001).

Key:
[1] = biological target: T1, Muscarinic acetylcholine receptor M2 (Homo sapiens) (UniProt P08172); assay: Affinity for Muscarinic acetylcholine receptor M2 of guinea pig heart.; conditions: Cavia porcellus; target entry is the homologue from another species
T1 sequence (whole entry): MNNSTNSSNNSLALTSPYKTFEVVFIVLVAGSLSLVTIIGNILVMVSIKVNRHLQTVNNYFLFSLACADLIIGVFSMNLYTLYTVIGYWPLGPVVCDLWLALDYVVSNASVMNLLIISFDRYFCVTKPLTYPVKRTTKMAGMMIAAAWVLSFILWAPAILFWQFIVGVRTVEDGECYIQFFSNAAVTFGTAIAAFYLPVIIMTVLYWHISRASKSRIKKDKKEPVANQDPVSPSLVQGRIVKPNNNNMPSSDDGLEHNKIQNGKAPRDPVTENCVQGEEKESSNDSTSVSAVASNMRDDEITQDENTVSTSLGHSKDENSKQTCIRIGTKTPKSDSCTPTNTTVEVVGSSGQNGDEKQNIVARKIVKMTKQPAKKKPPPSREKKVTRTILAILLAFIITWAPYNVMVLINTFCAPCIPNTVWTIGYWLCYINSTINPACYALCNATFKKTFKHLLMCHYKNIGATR

[2] = biological target: T2, Muscarinic acetylcholine receptor M1 (Homo sapiens) (UniProt P11229); assay: Affinity for Muscarinic acetylcholine receptor M1 of rabbit vas deferens.; conditions: Oryctolagus cuniculus; target entry is the homologue from another species
T2 sequence (whole entry): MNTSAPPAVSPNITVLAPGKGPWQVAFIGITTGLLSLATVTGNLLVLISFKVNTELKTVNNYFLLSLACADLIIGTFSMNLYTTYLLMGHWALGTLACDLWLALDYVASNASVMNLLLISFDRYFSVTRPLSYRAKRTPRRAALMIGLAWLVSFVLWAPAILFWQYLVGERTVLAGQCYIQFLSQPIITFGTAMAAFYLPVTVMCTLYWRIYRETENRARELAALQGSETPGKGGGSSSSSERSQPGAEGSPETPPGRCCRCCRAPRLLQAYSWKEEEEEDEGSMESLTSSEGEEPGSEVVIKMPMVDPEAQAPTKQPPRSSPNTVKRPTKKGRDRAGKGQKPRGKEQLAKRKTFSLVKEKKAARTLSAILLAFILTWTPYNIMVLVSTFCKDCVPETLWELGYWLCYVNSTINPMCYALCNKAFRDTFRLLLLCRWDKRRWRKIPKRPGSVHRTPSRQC

[3] = biological target: Muscarinic acetylcholine receptor M3 (Cavia porcellus) (UniProt Q8VH26); assay: Affinity for Muscarinic acetylcholine receptor M3 of guinea pig ileum.; assay type: tissue-based
Muscarinic acetylcholine receptor M3 (Cavia porcellus), sequence (Q8VH26 1-587): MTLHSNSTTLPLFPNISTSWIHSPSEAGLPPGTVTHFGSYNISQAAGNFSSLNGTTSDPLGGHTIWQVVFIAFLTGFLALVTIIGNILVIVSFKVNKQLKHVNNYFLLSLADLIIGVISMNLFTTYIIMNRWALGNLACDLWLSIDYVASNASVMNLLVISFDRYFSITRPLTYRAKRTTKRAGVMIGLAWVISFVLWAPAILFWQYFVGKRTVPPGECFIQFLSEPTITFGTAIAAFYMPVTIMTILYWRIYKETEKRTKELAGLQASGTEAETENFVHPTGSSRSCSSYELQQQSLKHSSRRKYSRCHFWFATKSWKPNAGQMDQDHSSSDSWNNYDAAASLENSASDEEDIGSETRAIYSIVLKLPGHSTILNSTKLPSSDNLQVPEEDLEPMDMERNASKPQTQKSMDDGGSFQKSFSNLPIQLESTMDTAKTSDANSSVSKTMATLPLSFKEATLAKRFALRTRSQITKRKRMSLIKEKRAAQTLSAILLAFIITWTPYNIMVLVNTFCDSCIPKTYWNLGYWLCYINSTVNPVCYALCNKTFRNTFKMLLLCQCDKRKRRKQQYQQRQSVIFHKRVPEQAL

| SMILES | pKb [1] | pKb [2] | pKb [3] |
| --- | --- | --- | --- |
| CC(C1COC(c2ccccc2)(c2ccccc2)O1)[N+](C)(C)C (racemic; form 1) | 8.22 | 8.01 | 8.3 |
| CC(C1COC(c2ccccc2)(c2ccccc2)O1)[N+](C)(C)C (racemic; form 2) | 8.07 | 7.82 | 7.92 |
| CN(C)CC1COC(c2ccccc2)(c2ccccc2)O1 (centres undefined) | 7.11 | 7.15 | 6.72 |
| C[C@@H](C1COC(c2ccccc2)(c2ccccc2)O1)N(C)C (some centres undefined) | 7.35 | 6.94 | 7.19 |
| C[C@H](C1COC(c2ccccc2)(c2ccccc2)O1)[N+](C)(C)C (some centres undefined) | 7.53 | 8.24 | 7.51 |
| C[C@@H]([C@H]1COC(c2ccccc2)(c2ccccc2)O1)N(C)C | 8.39 | 8.46 | 8.92 |
| C[C@@H]([C@H]1COC(c2ccccc2)(c2ccccc2)O1)[N+](C)(C)C | 7.82 | 7.47 | 7.85 |
| C[C@H]([C@@H]1COC(c2ccccc2)(c2ccccc2)O1)N(C)C | 7.47 | 6.83 | 7.45 |
| C[C@H]([C@@H]1COC(c2ccccc2)(c2ccccc2)O1)[N+](C)(C)C | 8.38 | 8.23 | 8.4 |
| CC(C1COC(c2ccccc2)(c2ccccc2)O1)N(C)C (racemic; form 1) | 7.2 | 6.95 | 6.96 |
| C[C@H](C1COC(c2ccccc2)(c2ccccc2)O1)N(C)C (some centres undefined) | 6.41 | 6.52 | 6.41 |
| C[C@@H](C1COC(c2ccccc2)(c2ccccc2)O1)[N+](C)(C)C (some centres undefined) | 8.21 | 7.12 | 8 |
| CC(C1COC(c2ccccc2)(c2ccccc2)O1)N(C)C (racemic; form 2) | 8.03 | 8.11 | 7.94 |
